Data from PMC9021288 (Nature Communications, 2022).
“And” between values parts separate entries of the source, which are not always exact repeats. Identical values can stand only once.

Columns and labels:
[1] = tested on: cryopreserved human primary hepatocytes; assay: Human hepatocyte clearance (relay assay); settings: for % Remaining: 10 µM, single replicates
Source text: Briefly, cryopreserved human primary hepatocytes were thawed and cultured as described above.

Crystal screening (XRPD) = format: physicochemical; settings: 36 conditions
Procedure: Crystal screening for each further characterized pantothenamide was performed by a commercial service (Crystal Pharmatech Co., Ltd.) under 36 conditions using a variety of crystallization methods, including liquid vapor diffusion, slow evaporation, slurry conversion and salt/co-crystal formation and solvents. X-ray power diffraction (XRPD) patterns were collected by Bruker X-ray powder diffractometers.

[2] = tested on: P. falciparum Pf3D7^0087/N9; assay: Single dose in vivo efficacy in humanized NSG mice; parameters: species or system Plasmodium falciparum
How it was run: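 Female NSG mice engrafted daily with human erythrocytes from day -11 to day 6, then infected with P. falciparum Pf3D7^0087/N9. On day 4, groups of n = 2 received one oral-gavage dose of pantothenamide or chloroquine (50 mg/kg).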

[3] = tested on: P. falciparum NF54-HGL, dT648M, cT648M, cT627A asexual blood stages; assay: Asexual drug-sensitivity of AcAS mutant parasites; format: cell-based, Plasmodium falciparum
Procedure: Replication assays were performed using a SYBR Green method as described previously. Briefly, asynchronous parasites were diluted to 0.83% parasitemia, 3% hematocrit in 30 µl medium, and added to 30 µl of diluted compounds in medium (0.1% DMSO final concentration) in black 384-wells plates. After a 72-h incubation, 30 µl of SYBR Green diluted in lysis buffer was added according to the manufacturer’s protocol (Life Technologies). Fluorescence intensity was measured on a BioTek Synergy 2 Plate Reader after 1-h incubation and was normalized to a DMSO control (100% growth) and DHA- or epoxomicin-treatment (no growth). […] Parasite survival was assessed by flow cytometry on an Accuri C6 (BD Biosciences) with BD C6 Plus software using SYBR Green and MitoTracker Deep Red FM (Life Technologies) as nuclear stain and vital dye, respectively, and data were analyzed using FlowJo (10.5.0). […] Luminescence was measured after 72 h using the Renilla-Glo(R) Luciferase Assay System (Promega E2750) and the GlomAX® Discover Multimode Microplate Reader (Promega). The luminescence values were normalized to DMSO vehicle (100% growth) and 200 nM chloroquine-treated (no growth) samples as controls.
The mutation found in selected drug-resistant parasites was verified by introducing the point mutations in AcAS (T648M and T627A) in NF54-HGL parasites using a CRISPR-Cas9 system as described previously. The oligonucleotides for the guide RNA and the donor template were cloned into a pDC2-based plasmid containing a Cas9 and guide cassette, using the BbsI and EcoRI/AatII restriction sites, respectively. Donor DNA was amplified by (overlap-extension) PCR amplification from genomic P. falciparum DNA and oligonucleotides for the guide RNAs were ordered (Sigma-Aldrich). The correct sequence and integration of both inserts were confirmed by Sanger Sequencing.

[4] = tested on: P. falciparum NF54-HGL gametocytes; assay: Gametocyte viability assay (72 h, luminescence); format: cell-based, Plasmodium falciparum
Procedure: (§1) Gametocyte viability assays on NF54-HGL parasites were performed using an adapted high-throughput protocol as previously described[15],[64]. In short, asexual blood-stage parasite cultures were set up at 1% parasitemia in a semi-automated shaker system at 5% hematocrit. From day four until day eight or nine, parasites were treated with 50 mM N-acetyl glucosamine to eliminate all asexual blood-stage parasites. Subsequently, gametocytes were isolated by a Percoll density gradient centrifugation. At day 11, gametocytes were seeded (5,000 per well) in 30 µl in white 384-well plates containing 30 µl of compounds diluted in medium (0.1% DMSO). After a 72-h incubation, 30 µl of ONE-Glo reagent (Promega) was added according to manufacturer’s protocol and luminescence was quantified using the BioTek Synergy 2 Plate reader. Values were normalized to DMSO- and epoxomicin or dihydroartemisinin-treated controls.

[5] = tested on: P. falciparum T648M / T627A AcAS mutant gametocytes; format: cell-based, Plasmodium falciparum
Procedure: as §1

C[C@@H](CNC(=O)[C@H](O)C(C)(C)CO)NC(=O)c1cc(F)c(F)cc1F [MMV693183]
% Remaining ([1]; hepatocyte donor HC02, 0 h): 100.0%
% Remaining ([1]; hepatocyte donor HC02, 6 h): 77.4% and 91.4%
% Remaining ([1]; hepatocyte donor HC02, 24 h): 90.3% and 124.4%
% Remaining ([1]; hepatocyte donor HC02, 48 h): 87.4% and 110.8%
% Remaining ([1]; hepatocyte donor HC02, 72 h): 63.9% and 86.8%
% Remaining ([1]; hepatocyte donor HC06, 0 h): 100.0%
% Remaining ([1]; hepatocyte donor HC06, 3 h): 77.2% and 88.0%
% Remaining ([1]; hepatocyte donor HC06, 6 h): 79.3% and 91.3%
% Remaining ([1]; hepatocyte donor HC06, 24 h): 87.0% and 115.0%
% Remaining ([1]; hepatocyte donor HC06, 48 h): 64.3% and 81.2%
% Remaining ([1]; hepatocyte donor HC06, 72 h): 61.0% and 75.3%
% Remaining ([1]; hepatocyte donor HC425, 0 h): 100.0%
% Remaining ([1]; hepatocyte donor HC425, 6 h): 79.3% and 88.2%
% Remaining ([1]; hepatocyte donor HC425, 24 h): 68.0% and 93.2%
% Remaining ([1]; hepatocyte donor HC425, 48 h): 73.6% and 94.3%
% Remaining ([1]; hepatocyte donor HC425, 72 h): 68.2% and 91.6%
% Remaining ([1]; hepatocyte donor HC1010, 0 h): 100.0%
% Remaining ([1]; hepatocyte donor HC1010, 1 h): 120.3% and 86.1% and 104.1% and 69.6%
% Remaining ([1]; hepatocyte donor HC1010, 6 h): 88.7% and 55.7% and 88.0% and 45.9%
% Remaining ([1]; hepatocyte donor HC1010, 24 h): 90.4% and 62.9% and 77.2% and 55.3%
% Remaining ([1]; hepatocyte donor HC1010, 48 h): 70.7% and 54.4% and 57.7% and 44.1%
% Remaining ([1]; hepatocyte donor HC1010, 72 h): 34.1% and 43.9% and 31.3% and 51.9%
CLint ([1]; donor HC02): 0.082 µL/min/million cells
CLint ([1]; donor HC06): 0.142 µL/min/million cells
CLint ([1]; donor HC425): 0.0695 µL/min/million cells
Human hepatocyte CLint ([1]; human, hepatocytes): 0.4 µl/min/10^6 cells
human hepatocyte clearance, four donors ([1]; range of donors): 0.07 to 0.4 µl/min/10^6 cells
Crystalline (Crystal screening (XRPD)): Yes
Parasitemia ([2]; day 5 post infection, 50 mg/kg p.o. on day 4, per mouse, 50 mg/kg): 0.2 and 0.29
Parasitemia ([2]; day 6 post infection, per mouse): 0.03 and 0.02
Parasitemia ([2]; day 7 post infection, per mouse): 0
parasitemia outcome ([2]; single 50 mg/kg oral gavage on day 4, over three days): reduced parasitemias below detectable levels
sensitivity of T627A AcAS mutant [3]: also resistant to MMV693183
IC50 shift asexual ([3]; CRISPR cT648M): 49 ×
IC50 shift ([3]; NF54 selected at 7 nM): 77 x
IC50 shift ([3]; selected resistant parasites vs parent, asexual growth assay): 13-77 ×
Sexual blood stages viability, dose-response ([4]; Log concentration (M) -7.5): 36.75 and 49.45 and 51.8
Sexual blood stages viability, dose-response ([4]; Log concentration (M) -8): 69.2 and 83.95 and 95.65
Sexual blood stages viability, dose-response ([4]; Log concentration (M) -8.5): 82.4 and 91.1 and 100.8
Sexual blood stages viability, dose-response ([4]; Log concentration (M) -9): 98.1 and 92.5 and 103.2
Sexual blood stages viability, dose-response ([4]; Log concentration (M) -9.5): 107.25 and 92.05 and 100.45
Sexual blood stages viability, dose-response ([4]; Log concentration (M) -10): 92.05 and 87.2 and 94.15
IC50 ([4]; per replicate experiment, read-out: IC50, sexual blood stages): 17.8 nM and 36 nM and 36.8 nM
IC50 shift sexual ([5]; CRISPR cT648M): > 50 ×
IC50 shift gametocytes ([5]; selected resistant (dT648M) gametocytes): > 50 ×
